Where two headings read alike, the source gives them in different places.
Tests used:
ERK1 = target: T1, ERK1 (Homo sapiens, UniProt P27361); assay: Kinase panel screen (KinaseProfiler), ERK1; assay type: biochemical; conditions: for activity at 1 µM: 1 μM test compound, read-out: ERK1 Percent inhibition, 1 μM; for activity at 1 µM / activity at 10 µM: 10 μM ATP; for activity at 10 µM: 10 μM test compound, read-out: ERK1 Percent inhibition, 10 μM
T1 construct: purchased Upstate, Millipore Bioscience Division (KinaseProfiler service)
T1 sequence (P27361 whole entry): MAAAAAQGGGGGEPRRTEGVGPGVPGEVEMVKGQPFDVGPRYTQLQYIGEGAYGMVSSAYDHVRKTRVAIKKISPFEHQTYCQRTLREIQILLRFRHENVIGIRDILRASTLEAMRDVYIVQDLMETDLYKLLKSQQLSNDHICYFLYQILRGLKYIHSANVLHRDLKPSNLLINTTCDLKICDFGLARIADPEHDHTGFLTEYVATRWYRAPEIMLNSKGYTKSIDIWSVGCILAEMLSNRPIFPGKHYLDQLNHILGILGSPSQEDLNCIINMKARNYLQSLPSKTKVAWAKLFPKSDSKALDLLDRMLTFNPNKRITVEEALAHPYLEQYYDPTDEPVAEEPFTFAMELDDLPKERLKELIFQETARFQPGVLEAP
Experimental: (§1) Compounds of Formulae I and II were examined for activity against a selected panel of kinases using the KinaseProfiler™ enzyme profiling services (Upstate, Millipore Bioscience Division). Percent kinase activity at 10 μM and 1 μM test compound and 10 μM ATP was determined against 40 wild-type recombinant human kinases according to Upstate's standard protocol: ASK1, BTK, CSK, c-RAF, GCK, GSK3β, IKKα, IKKβ, IRAK1, IRAK4, JNK1α1, JNK2α2, JNK3, ERK1, ERK2, MAPKAP-K2, MAPKAP-K3, MEK1, MKK4, MKK6, MKK7β, Mnk2, MSK1, PAK3, PDK1, PRAK, ROCK1, Rsk2, SAPK2a, SAPK2b, SAPK3, SAPK4, SRPK1, SRPK2, Syk, TAK1, TBK1, PI3-Kβ, PI3-Kγ, PI3-Kδ.

ROCK1 = target: T2, ROCK1 (Homo sapiens, UniProt Q13464); assay: Rho kinase inhibition assay (IMAP fluorescence polarization), ROCK1; assay type: biochemical;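 further: kinase reaction run 60 min at room temperature, then phosphorylated substrate captured on IMAP beads for 30 min, with fluorescence polarization read in mP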
T2 construct: purchased Upstate/Chemicon 14-601
T2 sequence (Q13464 17-535 limits assumed): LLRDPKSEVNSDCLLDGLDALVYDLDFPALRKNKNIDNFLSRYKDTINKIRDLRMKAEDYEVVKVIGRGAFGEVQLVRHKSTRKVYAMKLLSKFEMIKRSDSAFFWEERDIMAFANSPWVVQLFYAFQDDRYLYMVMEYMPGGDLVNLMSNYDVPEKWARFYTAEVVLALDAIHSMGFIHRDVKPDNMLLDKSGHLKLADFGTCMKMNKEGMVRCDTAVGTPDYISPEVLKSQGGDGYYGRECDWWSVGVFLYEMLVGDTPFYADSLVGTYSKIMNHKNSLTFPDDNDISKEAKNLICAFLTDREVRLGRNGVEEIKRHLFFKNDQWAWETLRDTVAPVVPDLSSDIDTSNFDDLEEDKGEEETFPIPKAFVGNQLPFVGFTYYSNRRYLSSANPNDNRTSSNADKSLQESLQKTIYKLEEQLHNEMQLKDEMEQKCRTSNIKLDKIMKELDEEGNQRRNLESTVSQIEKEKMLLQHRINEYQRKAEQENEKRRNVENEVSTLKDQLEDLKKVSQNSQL
Experimental: (§2) Following the pre-incubation, 10 μM ATP was added to initiate the reaction. After 60 minutes at room temperature, Molecular Devices IMAP™ binding solution was added to bind phosphorylated substrate. After 30 minutes of incubation in the presence of the IMAP™ beads, the fluorescence polarization was read and the ratio was reported as mP. IC50 values for compounds and EC50 values for ATP were calculated using the Prism software from Graphpad.

IRAK1 = target: T3, IRAK1 (Homo sapiens, UniProt P51617); assay: Kinase panel screen (KinaseProfiler), IRAK1; assay type: biochemical; conditions: 10 μM ATP; for activity at 1 µM: 1 μM test compound, read-out: IRAK1 Percent inhibition, 1 μM; for activity at 10 µM: 10 μM test compound, read-out: IRAK1 Percent inhibition, 10 μM
T3 construct: purchased Upstate, Millipore Bioscience Division (KinaseProfiler service)
T3 sequence (P51617 whole entry): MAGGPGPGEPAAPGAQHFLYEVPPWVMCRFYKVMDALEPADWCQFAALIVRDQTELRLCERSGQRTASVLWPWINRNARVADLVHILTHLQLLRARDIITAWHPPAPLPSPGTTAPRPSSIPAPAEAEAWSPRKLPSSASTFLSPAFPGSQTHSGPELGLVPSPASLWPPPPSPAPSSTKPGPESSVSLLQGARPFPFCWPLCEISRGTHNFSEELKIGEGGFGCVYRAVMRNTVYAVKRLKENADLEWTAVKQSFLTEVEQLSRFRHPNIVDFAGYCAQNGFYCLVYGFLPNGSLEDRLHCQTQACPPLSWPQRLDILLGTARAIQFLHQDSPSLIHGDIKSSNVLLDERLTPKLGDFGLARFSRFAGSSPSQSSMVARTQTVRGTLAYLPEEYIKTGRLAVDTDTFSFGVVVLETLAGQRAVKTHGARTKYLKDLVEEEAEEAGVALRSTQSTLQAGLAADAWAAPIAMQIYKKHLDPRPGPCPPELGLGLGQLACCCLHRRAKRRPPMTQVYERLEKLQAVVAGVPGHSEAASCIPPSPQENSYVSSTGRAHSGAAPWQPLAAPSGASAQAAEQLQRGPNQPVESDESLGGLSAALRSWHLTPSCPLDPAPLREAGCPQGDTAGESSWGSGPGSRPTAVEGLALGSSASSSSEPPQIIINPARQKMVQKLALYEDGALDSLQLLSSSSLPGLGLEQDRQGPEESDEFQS
Experimental: as §1

ROCK2 = target: T4, ROCK2 (Homo sapiens, UniProt O75116); assay: Rho kinase inhibition assay (IMAP fluorescence polarization), ROCK2; assay type: biochemical;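 further: kinase reaction started with 10 µM ATP and run 60 min at room temperature, then phosphorylated substrate captured on IMAP beads for 30 min and fluorescence polarization read in mP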
T4 construct: purchased Upstate/Chemicon 14-451
T4 sequence (O75116 11-552 limits assumed): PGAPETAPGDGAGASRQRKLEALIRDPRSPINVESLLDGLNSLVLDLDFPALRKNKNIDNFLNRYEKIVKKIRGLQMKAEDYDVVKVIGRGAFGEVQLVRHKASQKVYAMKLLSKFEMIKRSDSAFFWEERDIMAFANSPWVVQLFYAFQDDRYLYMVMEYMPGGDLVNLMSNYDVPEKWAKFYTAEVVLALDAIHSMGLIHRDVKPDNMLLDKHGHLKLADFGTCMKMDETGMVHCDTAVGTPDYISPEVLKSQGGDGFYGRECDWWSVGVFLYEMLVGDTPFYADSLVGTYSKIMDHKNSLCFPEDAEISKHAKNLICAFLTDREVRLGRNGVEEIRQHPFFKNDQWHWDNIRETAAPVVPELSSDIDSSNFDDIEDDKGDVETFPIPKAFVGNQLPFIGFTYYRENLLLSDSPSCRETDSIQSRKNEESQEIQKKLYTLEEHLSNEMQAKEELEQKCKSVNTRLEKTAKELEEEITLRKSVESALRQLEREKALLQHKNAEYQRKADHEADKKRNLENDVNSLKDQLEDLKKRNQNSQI
Experimental: as §2

[1] = Compound plasma concentrations in unsensitized mice at 15 min post administration; assay type: in vivo; conditions: mouse, 15 μmol/kg; mean compound plasma concentration in mice at 15 minutes post oral administration; read-out: Mouse Oral PK
IRAK4 = target: T5, IRAK4 (Homo sapiens, UniProt Q9NWZ3); assay: Kinase panel screen (KinaseProfiler), IRAK4; assay type: biochemical; conditions: 10 μM ATP; for activity at 1 µM: 1 μM test compound, read-out: IRAK4 Percent inhibition, 1 μM; for activity at 10 µM: 10 μM test compound, read-out: IRAK4 Percent inhibition, 10 μM
T5 construct: purchased Upstate, Millipore Bioscience Division (KinaseProfiler service)
T5 sequence (Q9NWZ3 1-460): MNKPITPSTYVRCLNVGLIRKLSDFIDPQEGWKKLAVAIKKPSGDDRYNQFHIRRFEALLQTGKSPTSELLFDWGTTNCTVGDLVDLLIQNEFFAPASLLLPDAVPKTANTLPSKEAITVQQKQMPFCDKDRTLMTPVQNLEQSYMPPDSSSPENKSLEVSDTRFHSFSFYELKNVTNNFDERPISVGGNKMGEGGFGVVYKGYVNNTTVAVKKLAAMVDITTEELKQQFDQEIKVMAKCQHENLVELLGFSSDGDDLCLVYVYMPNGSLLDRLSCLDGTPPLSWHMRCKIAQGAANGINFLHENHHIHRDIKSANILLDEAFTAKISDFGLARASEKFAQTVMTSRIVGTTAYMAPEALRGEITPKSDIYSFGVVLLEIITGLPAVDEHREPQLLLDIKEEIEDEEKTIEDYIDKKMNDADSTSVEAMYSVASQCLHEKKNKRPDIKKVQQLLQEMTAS
Experimental: as §1

[2] = tested on: A-10 rat thoracic aorta cells; assay: PDGF-stimulated smooth muscle cell proliferation assay (BrdU incorporation); assay type: cell-based; conditions: A-10 cells, 10 ng/mL PDGF, BrdU incorporation, percent of total challenge-stimulated proliferation; for Percent of PDGF Induced Proliferation at 1 μM Avg: 1 μM test compound; for Percent of PDGF Induced Proliferation at 10 μM Avg: 10 μM test compound;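 on all read-outs here: cells kept in serum-free medium, BrdU allowed to incorporate for 24 h, then incorporated label detected fluorometrically with an anti-BrdU antibody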
Akt3 human enzyme = target: T6, Akt3 human enzyme (Homo sapiens, UniProt Q9Y243); assay: Akt3 inhibition assay (IMAP FP); assay type: biochemical;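 further: kinase reaction run 60 min at room temperature after 30 µM ATP start, phosphorylated substrate captured on IMAP beads and read as fluorescence polarization (mP)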
T6 construct: purchased Upstate Chemicon 14-502
T6 sequence (Q9Y243 whole entry): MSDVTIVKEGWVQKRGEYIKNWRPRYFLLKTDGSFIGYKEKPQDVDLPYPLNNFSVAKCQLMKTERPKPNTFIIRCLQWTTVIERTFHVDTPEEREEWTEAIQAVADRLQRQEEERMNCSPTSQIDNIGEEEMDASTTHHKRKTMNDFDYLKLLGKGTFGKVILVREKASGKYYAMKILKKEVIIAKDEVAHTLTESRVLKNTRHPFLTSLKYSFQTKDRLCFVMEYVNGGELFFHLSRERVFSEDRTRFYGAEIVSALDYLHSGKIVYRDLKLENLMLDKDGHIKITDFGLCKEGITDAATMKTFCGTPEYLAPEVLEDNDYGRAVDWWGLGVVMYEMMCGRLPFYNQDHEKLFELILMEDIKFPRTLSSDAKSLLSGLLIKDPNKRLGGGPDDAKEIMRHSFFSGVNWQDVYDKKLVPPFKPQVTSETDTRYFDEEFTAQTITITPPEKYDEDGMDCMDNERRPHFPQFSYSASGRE

ERK2 = target: T7, ERK2 (Homo sapiens, UniProt P28482); assay: Kinase panel screen (KinaseProfiler), ERK2; assay type: biochemical
T7 construct: purchased Upstate, Millipore Bioscience Division (KinaseProfiler service)
T7 sequence (P28482 whole entry): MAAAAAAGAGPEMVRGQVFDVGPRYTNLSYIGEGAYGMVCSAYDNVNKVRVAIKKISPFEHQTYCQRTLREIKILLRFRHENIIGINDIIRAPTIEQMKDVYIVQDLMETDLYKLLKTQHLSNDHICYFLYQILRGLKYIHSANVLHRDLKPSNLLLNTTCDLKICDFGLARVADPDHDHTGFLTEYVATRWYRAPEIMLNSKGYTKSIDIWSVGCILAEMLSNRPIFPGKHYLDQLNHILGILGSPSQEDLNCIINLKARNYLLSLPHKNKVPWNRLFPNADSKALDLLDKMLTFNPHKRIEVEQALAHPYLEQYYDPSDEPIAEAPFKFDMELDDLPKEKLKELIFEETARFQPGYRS
Experimental: as §1

Mnk2 = target: T8, Mnk2 (Homo sapiens, UniProt Q9HBH9); assay: Kinase panel screen (KinaseProfiler), Mnk2; assay type: biochemical; conditions: 10 μM ATP; for activity at 1 µM: 1 μM test compound, read-out: Mnk2 Percent inhibition, 1 μM; for activity at 10 µM: 10 μM test compound, read-out: Mnk2 Percent inhibition, 10 μM
T8 construct: purchased Upstate, Millipore Bioscience Division (KinaseProfiler service)
T8 sequence (Q9HBH9 whole entry): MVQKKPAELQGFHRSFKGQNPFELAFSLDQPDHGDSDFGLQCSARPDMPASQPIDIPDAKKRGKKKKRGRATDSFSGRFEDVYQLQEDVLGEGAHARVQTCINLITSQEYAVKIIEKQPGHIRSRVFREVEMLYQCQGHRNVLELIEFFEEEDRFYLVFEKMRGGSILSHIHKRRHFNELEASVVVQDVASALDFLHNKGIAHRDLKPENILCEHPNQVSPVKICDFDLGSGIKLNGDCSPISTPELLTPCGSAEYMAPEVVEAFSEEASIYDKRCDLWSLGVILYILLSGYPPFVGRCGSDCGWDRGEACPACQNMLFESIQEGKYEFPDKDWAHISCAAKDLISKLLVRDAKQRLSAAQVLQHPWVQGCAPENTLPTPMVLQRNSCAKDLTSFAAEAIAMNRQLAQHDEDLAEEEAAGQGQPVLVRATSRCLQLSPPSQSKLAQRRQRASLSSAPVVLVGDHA
Experimental: as §1

GCK = target: T9, GCK (Homo sapiens, UniProt Q12851); assay: Kinase panel screen (KinaseProfiler), GCK; assay type: biochemical; conditions: for activity at 10 µM: 10 μM test compound, 10 μM ATP, read-out: GCK Percent inhibition, 10 μM
T9 construct: purchased Upstate, Millipore Bioscience Division (KinaseProfiler service)
T9 sequence (Q12851 1-820): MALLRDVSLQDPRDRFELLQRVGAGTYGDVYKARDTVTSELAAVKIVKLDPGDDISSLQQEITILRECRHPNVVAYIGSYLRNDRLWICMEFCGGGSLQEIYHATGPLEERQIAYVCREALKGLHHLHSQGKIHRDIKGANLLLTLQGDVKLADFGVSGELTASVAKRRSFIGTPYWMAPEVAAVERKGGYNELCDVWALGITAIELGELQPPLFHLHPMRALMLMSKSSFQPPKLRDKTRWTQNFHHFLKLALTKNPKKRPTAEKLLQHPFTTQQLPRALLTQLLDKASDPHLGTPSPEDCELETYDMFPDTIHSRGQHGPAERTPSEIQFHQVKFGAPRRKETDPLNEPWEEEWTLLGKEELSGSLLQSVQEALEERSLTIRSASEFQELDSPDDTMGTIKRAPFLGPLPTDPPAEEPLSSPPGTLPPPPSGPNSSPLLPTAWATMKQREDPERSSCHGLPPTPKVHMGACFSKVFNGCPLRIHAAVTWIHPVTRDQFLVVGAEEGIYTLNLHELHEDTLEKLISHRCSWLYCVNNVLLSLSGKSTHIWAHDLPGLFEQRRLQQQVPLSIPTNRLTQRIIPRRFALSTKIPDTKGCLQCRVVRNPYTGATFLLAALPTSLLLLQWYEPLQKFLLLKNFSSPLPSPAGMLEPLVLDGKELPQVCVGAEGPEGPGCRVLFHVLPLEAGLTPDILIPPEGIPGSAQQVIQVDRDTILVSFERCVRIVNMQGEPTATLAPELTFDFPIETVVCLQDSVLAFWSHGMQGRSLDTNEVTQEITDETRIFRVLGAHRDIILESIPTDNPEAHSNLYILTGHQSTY
Experimental: as §1

p70S6K human enzyme = target: T10, p70S6K human enzyme (Homo sapiens, UniProt P23443, T412E); assay: p70S6K inhibition assay (IMAP FP); assay type: biochemical;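 further: kinase reaction run at room temperature, phosphorylated substrate captured on IMAP beads and read as fluorescence polarization in mP, IC50 then converted to Ki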
T10 construct: purchased Upstate Chemicon 14-486
T10 sequence (P23443 1-421 T412E limits assumed): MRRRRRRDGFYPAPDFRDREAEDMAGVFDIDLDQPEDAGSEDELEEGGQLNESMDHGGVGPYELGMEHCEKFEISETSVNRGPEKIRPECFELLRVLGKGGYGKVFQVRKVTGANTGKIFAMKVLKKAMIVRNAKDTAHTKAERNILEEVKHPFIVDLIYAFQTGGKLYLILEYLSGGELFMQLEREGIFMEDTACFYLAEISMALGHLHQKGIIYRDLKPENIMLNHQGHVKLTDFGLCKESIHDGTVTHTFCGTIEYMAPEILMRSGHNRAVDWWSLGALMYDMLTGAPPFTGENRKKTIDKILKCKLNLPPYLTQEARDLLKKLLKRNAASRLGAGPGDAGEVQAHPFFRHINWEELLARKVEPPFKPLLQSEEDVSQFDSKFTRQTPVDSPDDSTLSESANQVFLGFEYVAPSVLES
Experimental: Inhibition of Akt3 and p70S6K activity was determined using the IMAP™ FP Progressive Binding Kit (Molecular Devices product number R8127). […] Following the pre-incubation, 30 μM ATP was added to initiate the reaction. After 60 minutes at RT, Molecular Devices IMAP™ binding solution was added to bind phosphorylated substrate. After 30 minutes of incubation in the presence of the IMAP™ beads the fluorescence polarization was read and the ratio was reported as mP. IC50 results were calculated using the Prism software from Graphpad. The Ki values were determined according to the following formula: Ki=IC50/(1+([ATP Challenge]/EC50 ATP)).

human monocytes = assay: Human monocyte cytokine secretion assay (LPS-stimulated); assay type: cell-based; conditions: average percent of stimulated IL-6 secretion from human monocytes at 10 μM of test compound
Experimental: Peripheral blood from healthy human volunteers was collected and the monocytes isolated via Ficoll-paque density centrifugation. […] The cells were allowed to pre-incubate with test compound at the indicated concentration for 30 minutes (37° C., 5% CO2, humidified air); after which the supernatant was removed and media containing compound and 1 ng/mL LPS was added. Cells were allowed to incubate with compounds and LPS for 4 hours at 37° C. after which the supernatant was removed and stored at −80° C. Cytokine concentrations in the supernatant were determined using commercially available Bio-Rad Bio-plex™ kits according the manufacturer's instructions.

[3] = Rat oral pharmacokinetics (plasma); assay type: in vivo; conditions: 20-30 μmol/kg
Experimental: Plasma (EDTA K2 anticoagulant) was collected from male, cannulated, CD Sprague Dawley rats to determine the pharmacokinetics of formulations containing compound inhibitors of Rho kinase. Each animal was dosed orally with a 4 ml/kg solution or suspension of each test compound in 10 mM acetate buffered saline, pH 4.5 at a final concentration range of 20-30 μmol/kg. Blood was collected at 0.25, 0.5, 1, 2, 4, 6, 8, and 24 hours. Plasma samples were assayed for the concentration of the test compound using an on-line, solid phase extraction LC/MS/MS analysis system.
Samples were analyzed on a QSTAR Elite, hybrid quadrupole time-of-flight mass spectrometer (Applied Biosystems, Framingham, Mass.) coupled with a Symbiosis Pharma integrated, on-line SPE-HPLC system (Spark Holland Inc., Plainsboro, N.J.). Analyst QS 2.0 software was used for instrument control, data acquisition and processing. […] Mobile Phase A consisted of 0.1% ammonium hydroxide in water and Mobile Phase B consisted of 0.1% formic acid in acetonitrile. Pharmacokinetic analyses were performed using WinNonlin software version 5.2 (Pharsight Corporation, Mountain View, Calif.).
As determined from the plasma concentration versus time curves, the time to peak and peak exposure are represented by the values Tmax and Cmax, respectively. The AUC values (nM*hr) shown were calculated as the areas under the plasma concentration versus time curves from time zero through the time of the last observable value and represent the total exposure of the compound over the course of the study. Half-life values or the amount of time required for the plasma levels of the compound to decline to half the initial value are represented as t½.

[4] = tested on: ova-sensitized, ova-challenged mice; assay: Prevention of airway hyperreactivity (Penh, methacholine) in mouse ovalbumin sensitization model; assay type: in vivo; conditions: for log10AUC (Penh): 0.5 μmol/kg/intratracheal, days 27 to 31; for airway hyperreactivity: intratracheal once a day during days 27 to 31
Experimental: The anti-inflammatory dosing paradigm consists of dosing the animals once a day starting on day 27 and finishing on either day 30 or 31 (1 hr prior to the aerosolized ovalbumin challenges on days 28 to 30) but not on day 32 when hyperreactivity evaluation occurs. […] Exposure to the methacholine doses consisted of a 3 minute period during which a nebulizer was aerosolizing the methacholine and an additional 3 minute period following the cessation of nebulization. […] Enhanced pause (Penh), a unitless index of airway hyperreactivity, is derived from the expiratory side of the respiratory waveform measured via the plethysmograph and is used as an indirect measure of airway resistance and hyperreactivity. […] Following the methacholine dose response, BALF was collected and all animals were anesthetized, bled and euthanized. […] The Penh value at each of the dose levels of methacholine represents the 6-minute average response. Change from baseline (CFB) in Penh was calculated at each methacholine dose and the area under the curve (AUC) for these CFB values was calculated using the trapezoidal rule. This same approach was applied for each mouse across multiple experiments. […] Data from equal experimental conditions across experiments performed on different days were pooled for statistical analysis and data reporting. […] A random intercept for each experiment was assumed to account for possible similarities of the results obtained from a given experiment (i.e., as a “blocking effect”). […] For FIG. 9, linear AUC values from compound treated mice were reported as a percent of linear AUC values from vehicle-treated ovalbumin-sensitized/ovalbumin-challenged (asthmatic) mice.

[5] = 10 μM ATP, read-out: ROCK2 Ki, Avg
[6] = 30 μM ATP, Ki=IC50/(1+([ATP Challenge]/EC50 ATP)), read-out: Akt3 Ki, Avg
[7] = 30 μM ATP, Ki=IC50/(1+([ATP Challenge]/EC50 ATP)), read-out: p70S6K Ki, Avg
[8] = average Ki, read-out: p70S6K Ki

| Compound | activity at 1 µM (ERK1) [%] | activity at 10 µM (ERK1) [%] | Ki (ROCK1; Avg, 10 μM ATP) [nM] | Ki (ROCK1; average Ki) [nM] | activity at 1 µM (IRAK1) [%] | activity at 10 µM (IRAK1) [%] | Ki (ROCK2; [5]) [nM] | Ki (ROCK2; average Ki, read-out: ROCK2 Ki) [nM] | concentration at 15 min [1] [nM] | activity at 1 µM (IRAK4) [%] | Ki (Akt3 human enzyme; [6]) [nM] | Ki (Akt3 human enzyme; average Ki, read-out: Akt3 Ki) [nM] | ERK2 Percent inhibition, 1 μM (ERK2) [%] | ERK2 Percent inhibition, 10 μM (ERK2) [%] | activity at 1 µM (Mnk2) [%] | activity at 10 µM (Mnk2) [%] | GCK Percent inhibition, 1 μM (GCK) [%] | activity at 10 µM (GCK) [%] | Ki (p70S6K human enzyme; [7]) [nM] | Ki (p70S6K human enzyme; [8]) [nM] | also measured |
| --- | --- | --- | --- | --- | --- | --- | --- | --- | --- | --- | --- | --- | --- | --- | --- | --- | --- | --- | --- | --- | --- |
| NC(=O)Cn1ccc2cc(CN3CCC[C@@H](Nc4ccc5[nH]ncc5c4)C3)ccc21 [Compound 1.162, (R)-2-(5-((3-(1H-indazol-5-ylamino)piperidin-1-yl)methyl)-1H-indol-1-yl)acetamide] | 84 | 50 | 15.2 | 15.2 | 100 | 97 | 2.8 | 2.8 | 76 | 105 | 92 | 92 | 89 | 60 | 111 | 65 | 93 | 75 | 387 | 387 | activity at 10 µM (IRAK4): 88%; Percent of PDGF Induced Proliferation at 1 μM Avg [2]: 55.6%; Percent of PDGF Induced Proliferation at 10 μM Avg [2]: 42.5% |
| NC(=O)Cn1ccc2ccc(CN3CC[C@@H](Nc4cccc5cnccc45)C3)cc21 [Compound 2.058, (R)-2-(6-((3-(isoquinolin-5-ylamino)pyrrolidin-1-yl)methyl)-1H-indol-1-yl)acetamide] |  |  | 15.3 | 15.3 |  |  | 3.3 | 3.3 | 194 |  | 1940 | 1940 |  |  |  |  |  |  | 213 | 213 | IL-6, % (human monocytes): 1.3% |
| CSc1ccc(CN2CCC[C@@H](Nc3ccc4[nH]ncc4c3)C2)cc1 [Compound 1.074, (R)-N-(1-(4-(methylthio)benzyl)piperidin-3-yl)-1H-indazol-5-amine] |  |  | 40.1 | 40.1 |  |  | 4.1 | 4.1 | 506 |  | 437 | 437 |  |  |  |  |  |  | 548 | 548 | Percent of PDGF Induced Proliferation at 1 μM Avg [2]: 79.9%; Percent of PDGF Induced Proliferation at 10 μM Avg [2]: 46.9%; IL-6, % (human monocytes): 96.0%; Vz_F ([3]; mean n = 3): 45.7 L/kg; AUC(0-t) ([3]; male, CD Sprague Dawley, mean n = 3): 1.17 µM·h; Cmax ([3]; male, CD Sprague Dawley, mean n = 3, read-out: Cmax): 735 nM; Tmax ([3]; male, CD Sprague Dawley, mean n = 3, read-out: Tmax): 25.2 min |
| OCCn1ccc2cc(CN3CC[C@@H](Nc4cccc5cnccc45)C3)ccc21 [Compound 2.066, (R)-2-(5-((3-(isoquinolin-5-ylamino)pyrrolidin-1-yl)methyl)-1H-indol-1-yl)ethanol] | 52 | 15 | 10.2 | 10.2 | 74 | 32 | 2.3 | 2.3 |  |  | 2510 | 2510 | 50 | 12 | 99 | 54 | 39 | 7 | 368 | 368 | inhibition at 1 µM (ERK1; 1 μM, read-out: ERK1 inhibited): ~50%; inhibition at 1 µM (ERK2; 1 μM, read-out: ERK2 inhibited): ~50%; log10AUC (Penh) [4]: 2.0248; airway hyperreactivity [4]: prevention of airway hyperreactivity |
| Cc1ccc(CN2CCC[C@@H](Nc3ccc4[nH]ncc4c3)C2)cc1OCCO [Compound 1.161, (R)-2-(5-((3-(1H-indazol-5-ylamino)piperidin-1-yl)methyl)-2-methylphenoxy)ethanol] |  |  | 9.9 | 9.9 | 106 | 99 | 2.5 | 2.5 |  | 96 | 63.5 | 63.5 | 104 | 92 | 108 | 106 | 96 | 91 | 129 | 129 | activity at 10 µM (IRAK4): 109%; log10AUC (Penh) [4]: 2.0405; airway hyperreactivity [4]: prevention of airway hyperreactivity |

Reference: patent US20090325959A1 (priority 2008, published 2009)
